Here are results for one compound from patent publication US7658954B2, “Synergistic antipyretic formulation” (Council of Scientific & Industrial Research, priority 2004, dated 2010).

The assay has as its system yeast induced pyrexia. The assay can be described thus: Antipyretic effect on yeast induced pyrexia in rats. It is filed as in vivo. As to conditions: Paracetamol 150 mg/kg.

Marks after values point to notes of the source that are not given here.

Regarding `CC(=O)Nc1ccc(O)cc1` [Paracetamol], the “Rectal temperature before and after treatment” value (0 h) amounted to 37.7 ± 0.2 °C; the “Rectal temperature before and after treatment” value (1 h) was 39.0 ± 0.2 °C; the “Rectal temperature before and after treatment” value (2 h) was 38.1 ± 0.3 °C; the “Rectal temperature before and after treatment” value (3 h) is given as 37.7 ± 0.2^b ° C; the “Rectal temperature before and after treatment” value (4 h) amounted to 37.6 ± 0.2 °C.
